Source: the supplement of paper PMC10307832

Assays:
Assay in all cases: relative viability (nuclei count vs DMSO), 5 days (fraction); higher = more cells survive
EMC-BAC-2 = system: EMC-BAC-2
Procedure, shortened: (§1)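 Dosing by pin tool came one day after lung cancer cell lines were seeded in 1536-well plates, using either one drug or a fixed anchor-drug dose plus five library-drug doses (not always all listed) in √10 steps. After 5 days, nuclei were counted on 4× images. Relative viability is treated-well nuclei count divided by vehicle-well nuclei count, and values are medians of duplicate plates.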

NCI-H23 = system: NCI-H23
Procedure, shortened: as §1

BEN = system: BEN
Procedure, shortened: as §1

NCI-H2023 = system: NCI-H2023
Procedure, shortened: as §1

NCI-H647 = system: NCI-H647
Procedure, shortened: as §1

NCI-H2009 = system: NCI-H2009
Procedure, shortened: as §1

NCI-H2126 = system: NCI-H2126
Procedure, shortened: as §1

NCI-H838 = system: NCI-H838
Procedure, shortened: as §1

NCI-H3122 = system: NCI-H3122
Procedure, shortened: as §1

HARA = system: HARA
Procedure, shortened: as §1

201T = system: 201T
Procedure, shortened: as §1

NCI-H1666 = system: NCI-H1666
Procedure, shortened: as §1

NCI-H1395 = system: NCI-H1395
Procedure, shortened: as §1

NCI-H727 = system: NCI-H727
Procedure, shortened: as §1

NCI-H2347 = system: NCI-H2347
Procedure, shortened: as §1

LCLC-103H = system: LCLC-103H
Procedure, shortened: as §1

HCC-44 = system: HCC-44
Procedure, shortened: as §1

NCI-H2087 = system: NCI-H2087
Procedure, shortened: as §1

NCI-H1993 = system: NCI-H1993
Procedure, shortened: as §1

NCI-H650 = system: NCI-H650
Procedure, shortened: as §1

NCI-H441 = system: NCI-H441
Procedure, shortened: as §1

NCI-H596 = system: NCI-H596
Procedure, shortened: as §1

LOU-NH91 = system: LOU-NH91
Procedure, shortened: as §1

## Oc1nc(-c2ccc(C(F)(F)F)cc2)nc2c1CSCC2 [XAV939] + COc1cccc2cc(-c3nc([C@H]4CC[C@H](C(=O)O)CC4)n4ncnc(N)c34)[nH]c12 [OSI-027] (partner 0.5 µM)
EMC-BAC-2; first compound 0.08 µM
  relative viability: 0.402
EMC-BAC-2; first compound 0.253 µM
  relative viability: 0.344
EMC-BAC-2; first compound 0.8 µM
  relative viability: 0.319
EMC-BAC-2; first compound 2.53 µM
  relative viability: 0.236
NCI-H23; first compound 0.08 µM
  relative viability: 0.65
NCI-H23; first compound 0.253 µM
  relative viability: 0.555
NCI-H23; first compound 0.8 µM
  relative viability: 0.628
NCI-H23; first compound 2.53 µM
  relative viability: 0.432
BEN; first compound 0.08 µM
  relative viability: 0.28
BEN; first compound 0.253 µM
  relative viability: 0.303
BEN; first compound 0.8 µM
  relative viability: 0.314
BEN; first compound 2.53 µM
  relative viability: 0.309
NCI-H2023; first compound 0.08 µM
  relative viability: 0.368
NCI-H2023; first compound 0.253 µM
  relative viability: 0.288
NCI-H2023; first compound 0.8 µM
  relative viability: 0.321
NCI-H2023; first compound 2.53 µM
  relative viability: 0.251
NCI-H647; first compound 0.08 µM
  relative viability: 0.722
NCI-H647; first compound 0.253 µM
  relative viability: 0.46
NCI-H647; first compound 0.8 µM
  relative viability: 0.656
NCI-H647; first compound 2.53 µM
  relative viability: 0.464
NCI-H2009; first compound 0.08 µM
  relative viability: 0.676
NCI-H2009; first compound 0.253 µM
  relative viability: 0.561
NCI-H2009; first compound 0.8 µM
  relative viability: 0.507
NCI-H2009; first compound 2.53 µM
  relative viability: 0.369
NCI-H2126; first compound 0.08 µM
  relative viability: 0.651
NCI-H2126; first compound 0.253 µM
  relative viability: 0.649
NCI-H2126; first compound 0.8 µM
  relative viability: 0.682
NCI-H2126; first compound 2.53 µM
  relative viability: 0.61
NCI-H838; first compound 0.08 µM
  relative viability: 0.375
NCI-H838; first compound 0.253 µM
  relative viability: 0.371
NCI-H838; first compound 0.8 µM
  relative viability: 0.365
NCI-H838; first compound 2.53 µM
  relative viability: 0.301
NCI-H3122; first compound 0.08 µM
  relative viability: 1.08
NCI-H3122; first compound 0.253 µM
  relative viability: 0.96
NCI-H3122; first compound 0.8 µM
  relative viability: 0.91
NCI-H3122; first compound 2.53 µM
  relative viability: 0.581
HARA; first compound 0.08 µM
  relative viability: 0.436
HARA; first compound 0.253 µM
  relative viability: 0.424
HARA; first compound 0.8 µM
  relative viability: 0.3
HARA; first compound 2.53 µM
  relative viability: 0.467
201T; first compound 0.08 µM
  relative viability: 0.61
201T; first compound 0.253 µM
  relative viability: 0.487
201T; first compound 0.8 µM
  relative viability: 0.575
201T; first compound 2.53 µM
  relative viability: 0.622
NCI-H1666; first compound 0.08 µM
  relative viability: 0.883
NCI-H1666; first compound 0.253 µM
  relative viability: 0.711
NCI-H1666; first compound 0.8 µM
  relative viability: 0.752
NCI-H1666; first compound 2.53 µM
  relative viability: 0.627
NCI-H1395; first compound 0.08 µM
  relative viability: 0.656
NCI-H1395; first compound 0.253 µM
  relative viability: 0.612
NCI-H1395; first compound 0.8 µM
  relative viability: 0.556
NCI-H1395; first compound 2.53 µM
  relative viability: 0.634
NCI-H727; first compound 0.08 µM
  relative viability: 0.696
NCI-H727; first compound 0.253 µM
  relative viability: 0.495
NCI-H727; first compound 0.8 µM
  relative viability: 0.744
NCI-H727; first compound 2.53 µM
  relative viability: 0.514
NCI-H2347; first compound 0.08 µM
  relative viability: 0.571
NCI-H2347; first compound 2.53 µM
  relative viability: 0.217
LCLC-103H; first compound 0.08 µM
  relative viability: 0.534
LCLC-103H; first compound 0.253 µM
  relative viability: 0.443
LCLC-103H; first compound 0.8 µM
  relative viability: 0.463
LCLC-103H; first compound 2.53 µM
  relative viability: 0.432
HCC-44; first compound 0.08 µM
  relative viability: 0.611
HCC-44; first compound 0.253 µM
  relative viability: 0.533
HCC-44; first compound 0.8 µM
  relative viability: 0.476
HCC-44; first compound 2.53 µM
  relative viability: 0.726
NCI-H2087; first compound 0.08 µM
  relative viability: 0.833
NCI-H2087; first compound 0.253 µM
  relative viability: 0.504
NCI-H2087; first compound 0.8 µM
  relative viability: 0.444
NCI-H2087; first compound 2.53 µM
  relative viability: 0.46
NCI-H1993; first compound 0.08 µM
  relative viability: 0.563
NCI-H1993; first compound 0.253 µM
  relative viability: 0.493
NCI-H1993; first compound 0.8 µM
  relative viability: 0.596
NCI-H1993; first compound 2.53 µM
  relative viability: 0.461
NCI-H650; first compound 0.08 µM
  relative viability: 0.52
NCI-H650; first compound 0.253 µM
  relative viability: 0.565
NCI-H650; first compound 0.8 µM
  relative viability: 0.493
NCI-H650; first compound 2.53 µM
  relative viability: 0.37
NCI-H441; first compound 0.08 µM
  relative viability: 0.657
NCI-H441; first compound 0.253 µM
  relative viability: 0.794
NCI-H441; first compound 0.8 µM
  relative viability: 0.697
NCI-H441; first compound 2.53 µM
  relative viability: 0.568
NCI-H596; first compound 0.08 µM
  relative viability: 0.803
NCI-H596; first compound 0.253 µM
  relative viability: 0.796
NCI-H596; first compound 0.8 µM
  relative viability: 0.768
NCI-H596; first compound 2.53 µM
  relative viability: 0.622
LOU-NH91; first compound 0.08 µM
  relative viability: 0.701
LOU-NH91; first compound 0.253 µM
  relative viability: 0.662
LOU-NH91; first compound 0.8 µM
  relative viability: 0.69
LOU-NH91; first compound 2.53 µM
  relative viability: 0.675
